How the values were obtained:
[1] = system: human serum proteins; conditions: cited from earlier work
[2] = human, in vivo, cited from earlier work
[3] = clinical; conditions: human, in vivo, po
Description: We performed a study on 30 healthy volunteer subjects using a double-blind design. Subjects with ages between 18 and 55 years were recruited. Exclusion criteria were: the use of substances with activity in CYP3A4 (quinidines), inhibitors (erythromycin), inducers (carbamazepines); consumption of illegal drugs (cocaine, heroin, tetrahydrocannabinoids); cigarettes, oral contraceptives, pregnancy, nursing, renal or liver disease history, obesity (>30% above ideal weight), abnormal biochemistry (electrolytes, liver or renal function) or hematologic (full count of blood cells).
After medicament delivery in each group, blood samples were taken at 0.5, 1, 1.5, 2, 2.5, 3, 4, 6, 8, 24 y 32 hours.

[4] = in vivo; cited from earlier work
[5] = metabolites of Alprazolam; cited from earlier work
[6] = molecular target: CYP2D6 isoenzyme (Homo sapiens, UniProt P10635); conditions: cited from earlier work; for activity over CYP2D6 isoenzyme compared with fluoxetine and its active metabolite: relative to fluoxetine and its active metabolite
[7] = system: serotonin reuptake process; conditions: relative to Sertraline; cited from earlier work
[8] = cited from earlier work

CYP2D6 isoenzyme, sequence (P10635 whole entry): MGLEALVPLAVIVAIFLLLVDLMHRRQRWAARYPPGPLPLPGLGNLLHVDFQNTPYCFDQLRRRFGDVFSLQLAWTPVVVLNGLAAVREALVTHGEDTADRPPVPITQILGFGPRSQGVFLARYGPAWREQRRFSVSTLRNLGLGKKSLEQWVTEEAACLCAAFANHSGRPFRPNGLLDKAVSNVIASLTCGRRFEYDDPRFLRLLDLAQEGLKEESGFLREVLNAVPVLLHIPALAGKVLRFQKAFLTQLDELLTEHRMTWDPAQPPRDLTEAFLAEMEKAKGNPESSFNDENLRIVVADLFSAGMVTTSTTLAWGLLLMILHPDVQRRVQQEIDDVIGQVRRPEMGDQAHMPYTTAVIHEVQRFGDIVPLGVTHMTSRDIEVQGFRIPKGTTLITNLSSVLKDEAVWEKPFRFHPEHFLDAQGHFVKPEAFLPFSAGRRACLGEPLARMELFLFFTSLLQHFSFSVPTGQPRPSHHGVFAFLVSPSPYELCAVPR

Cc1nnc2n1-c1ccc(Cl)cc1C(c1ccccc1)=NC2 [Alprazolam]
attached to human serum proteins [1]: 80% | time to maximum plasma concentrations ([2]; po): 1 to 2 h | Plasma clearance half-life, range [2]: 6.3 to 26.9 h | AUC(0-inf) [3]: 167 ± 53.1 ng·h/mL | Cmax [3]: 12.6 ± 7.5 ng/mL | Tmax [3]: 2.6 ± 1.4 h | concentrations in steady state related with toxicity [4]: higher than 60 ng/mL | t1/2 (Clearance half-life) (human, in vivo, po): 11.3 ± 2.2 h

OCc1nnc2n1-c1ccc(Cl)cc1C(c1ccccc1)=NC2 [alpha-hydroxy-Alprazolam]
biological activity compared with therapeutic activity of Alprazolam [5]: about one half

O=C(c1ccccc1)c1ccccc1 [benzophenone]
biological activity compared with therapeutic activity of Alprazolam [5]: essentially inactive

N[C@H]1CC[C@@H](c2ccc(Cl)c(Cl)c2)c2ccccc21 [DemethylSertraline]
activity over CYP2D6 isoenzyme compared with fluoxetine and its active metabolite [6]: five to ten times lower | activity over serotonin reuptake process compared with unaltered drug [7]: eight times lower

CN[C@H]1CC[C@@H](c2ccc(Cl)c(Cl)c2)c2ccccc21 [Sertraline]
in vitro inhibition of CYP2D6 isoenzyme ([6]; in vitro): weak in vitro inhibition | activity over CYP2D6 isoenzyme compared with fluoxetine and its active metabolite [6]: five to ten times lower | variation coefficient of plasma concentrations ([8]; after delivering fixed doses): 38% | dose recovered in urine and feces ([8]; oral administration, after seven days, 10080 min): 88% | Plasma half-life ([8]; plasma): 22 to 30 h | effect of Sertraline on Alprazolam kinetics (the two drugs administered in combination): does not significantly alter

Source: EP2186515A1, “PHARMACEUTICAL COMPOSITION COMPRISING THE COMBINATION OF AN ANTI-DEPRESSIVE AGENT AND AN ANSIOLYTIC AGENT FOR CONTROL AND TREATMENT OF DEPRESSIVE DISORDERS” (World Trade Import-Export, WTIE A.G., priority 2007, dated 2009)
